Reference: patent publication US20240376114A1, “NUCLEAR TRANSPORT MODULATORS AND USES THEREOF” (Karyopharm Therapeutics Inc., priority 2011, published 2024)

Assay: CellTiter 96 AQueous One Solution (MTS) cell proliferation assay
Type: cell-based
Conditions: human, MM.1S multiple myeloma cells; MM.1S cells, 72 h treatment; read-out: Cytotoxicity [EC50]
From the text: The CellTiter 96® AQueous One Solution cell proliferation assay (Promega) was used on MM.1S multiple myeloma cell line to study the cytotoxic and cytostatic properties of the compounds. The assay is based on the cleavage of the tetrazolium salt, MTS, in the presence of an electron-coupling reagent PES (phenazine ethosulfate). The MTS tetrazolium compound is bioreduced by cells into a colored formazan product that is soluble in tissue culture medium. This conversion is presumably accomplished by NADPH or NADH produced by dehydrogenase enzymes in metabolically active cells. Assays are performed by adding a small amount of the CellTiter 96® AQueous One solution reagent directly to culture wells, incubating for 1-4 hours and then recording the absorbance at 490 nm with a 96-well plate reader.
The cells were seeded at 5×10^3 to 1.5×10^4 cells (depending on cell type) in each well of a 96-well plate in 100 μL of fresh culture medium and adherent cells were allowed to attach overnight. The stock solutions of the compounds were diluted in cell culture medium to obtain eight concentrations of each drug, ranging from 1 nM to 30 μM and DMSO at less than 1% v/v was used as a negative control. The resulting drug solutions were transferred onto the cells. After 72 h of treatment, 20 μl of CellTiter 96® AQueous reagent was added into each well of the 96-well assay plates and the plate was incubated at 37° C. for 1-4 hours in a humidified, 5% CO2 atmosphere. Then the absorbance of each well was recorded at 490 nm using a 96-well plate reader. In most cases, the assay was performed in triplicate and the results were presented as half maximal inhibitory concentration (IC50). Optical density versus compound concentration was plotted and analyzed using non-linear regression equations (IDBS XLfit) and the IC50 for each compound was calculated.

Compound `O=C(/C=C\c1n[nH]c(-c2cc(C(F)(F)F)cc(C(F)(F)F)c2)n1)N1CC(F)(F)C1` [Compound 12, (Z)-3-(5-(3,5-bis(trifluoromethyl)phenyl)-4H-1,2,4-triazol-3-yl)-1-(3,3-difluoroazetidin-1-yl)prop-2-en-1-one] has an EC50 at 72 h of 1000 to 10000 nM.

`Cc1ncc(CNC(=O)/C=C\n2cnc(-c3cc(C(F)(F)F)cc(C(F)(F)F)c3)n2)cn1` [Compound 13, (Z)-3-(3-(3,5-bis(trifluoromethyl)phenyl)-1H-1,2,4-triazol-1-yl)-N-((2-methylpyrimidin-5-yl)methyl)acrylamide] gave an EC50 at 72 h of 1000 to 10000 nM.

`O=C(/C=C\n1cnc(-c2cc(C(F)(F)F)cc(C(F)(F)F)c2)n1)NCc1cncnc1` [Compound 14, (Z)-3-(3-(3,5-bis(trifluoromethyl)phenyl)-1H-1,2,4-triazol-1-yl)-N-(pyrimidin-5-ylmethyl)acrylamide] showed an EC50 at 72 h of under 1000 nM.

In the case of `O=C(/C=C\n1cnc(-c2cc(C(F)(F)F)cc(C(F)(F)F)c2)c1)N1CC(F)(F)C1` [Compound 16, (Z)-3-(4-(3,5-bis(trifluoromethyl)phenyl)-1H-imidazol-1-yl)-1-(3,3-difluoroazetidin-1-yl)prop-2-en-1-one], the EC50 at 72 h is reported as under 1000 nM.

Work on `CN(Cc1cncnc1)C(=O)/C=C\n1cnc(-c2cc(C(F)(F)F)cc(C(F)(F)F)c2)n1` [Compound 17, (Z)-3-(3-(3,5-bis(trifluoromethyl)phenyl)-1H-1,2,4-triazol-1-yl)-N-methyl-N-(pyrimidin-5-ylmethyl)acrylamide] yielded an EC50 at 72 h of 1000 to 10000 nM.

In the case of `Cc1ncc(CN(C)C(=O)/C=C\n2cnc(-c3cc(C(F)(F)F)cc(C(F)(F)F)c3)n2)cn1` [Compound 18, (Z)-3-(3-(3,5-bis(trifluoromethyl)phenyl)-1H-1,2,4-triazol-1-yl)-N-methyl-N-((2-methylpyrimidin-5-yl)methyl)acrylamide], the EC50 at 72 h is reported as 1000 to 10000 nM.

Work on `O=C(/C=C\n1cnc(-c2cc(C(F)(F)F)cc(C(F)(F)F)c2)n1)NCC1CCCNC1` (centres unmarked) [Compound 19, (Z)-3-(3-(3,5-bis(trifluoromethyl)phenyl)-1H-1,2,4-triazol-1-yl)-N-(piperidin-3-ylmethyl)acrylamide] yielded an EC50 at 72 h of 1000 to 10000 nM.

`O=C(/C=C\n1cnc(-c2cc(C(F)(F)F)cc(C(F)(F)F)c2)n1)N1CCC(F)(F)C1` [Compound 20, (Z)-3-(3-(3,5-bis(trifluoromethyl)phenyl)-1H-1,2,4-triazol-1-yl)-1-(3,3-difluoropyrrolidin-1-yl)prop-2-en-1-one] showed an EC50 at 72 h of under 1000 nM.

Compound `CN(Cc1cnco1)C(=O)/C=C\n1cnc(-c2cc(C(F)(F)F)cc(C(F)(F)F)c2)n1` [Compound 22, (Z)-3-(3-(3,5-bis(trifluoromethyl)phenyl)-1H-1,2,4-triazol-1-yl)-N-methyl-N-(oxazol-5-ylmethyl)acrylamide] has an EC50 at 72 h of 1000 to 10000 nM.

In the case of `O=C(/C=C\n1cnc(-c2cc(C(F)(F)F)cc(C(F)(F)F)c2)n1)N1CC(c2ccccn2)C1` [Compound 24, (Z)-3-(3-(3,5-bis(trifluoromethyl)phenyl)-1H-1,2,4-triazol-1-yl)-1-(3-(pyridin-2-yl)azetidin-1-yl)prop-2-en-1-one], the EC50 at 72 h is reported as under 1000 nM.

Compound `CN1CCC(CNC(=O)/C=C\n2cnc(-c3cc(C(F)(F)F)cc(C(F)(F)F)c3)n2)CC1` [Compound 26, (Z)-3-(3-(3,5-bis(trifluoromethyl)phenyl)-1H-1,2,4-triazol-1-yl)-N-((1-methylpiperidin-4-yl)methyl)acrylamide] has an EC50 at 72 h of under 1000 nM.

For `CN1CCCC(CNC(=O)/C=C\n2cnc(-c3cc(C(F)(F)F)cc(C(F)(F)F)c3)n2)C1` (centres unmarked) [Compound 27, (Z)-3-(3-(3,5-bis(trifluoromethyl)phenyl)-1H-1,2,4-triazol-1-yl)-N-((1-methylpiperidin-3-yl)methyl)acrylamide], the EC50 at 72 h was under 1000 nM.

Compound `O=C(/C=C\n1cnc(-c2cc(C(F)(F)F)cc(C(F)(F)F)c2)n1)NC1CCc2ncccc21` (centres unmarked) [Compound 28, (Z)-3-(3-(3,5-bis(trifluoromethyl)phenyl)-1H-1,2,4-triazol-1-yl)-N-(6,7-dihydro-5H-cyclopenta[b]pyridin-5-yl)acrylamide] has an EC50 at 72 h of 1000 to 10000 nM.

Work on `CC(NC(=O)/C=C\n1cnc(-c2cc(C(F)(F)F)cc(C(F)(F)F)c2)n1)c1cnccn1` (centres unmarked) [Compound 29, (Z)-3-(3-(3,5-bis(trifluoromethyl)phenyl)-1H-1,2,4-triazol-1-yl)-N-(1-(pyrazin-2-yl)ethyl)acrylamide] yielded an EC50 at 72 h of 1000 to 10000 nM.

`CN1CCC(CNC(=O)/C=C\n2cnc(-c3cc(C(F)(F)F)cc(C(F)(F)F)c3)n2)C1` (centres unmarked) [Compound 30, (Z)-3-(3-(3,5-bis(trifluoromethyl)phenyl)-1H-1,2,4-triazol-1-yl)-N-((1-methylpyrrolidin-3-yl)methyl)acrylamide] showed an EC50 at 72 h of under 1000 nM.

With `Cc1ncc(CNC(=O)/C=C\n2cnc(-c3cc(C(F)(F)F)cc(C(F)(F)F)c3)n2)c(C)n1` [Compound 31, (Z)-3-(3-(3,5-bis(trifluoromethyl)phenyl)-1H-1,2,4-triazol-1-yl)-N-((2,4-dimethylpyrimidin-5-yl)methyl)acrylamide] the EC50 at 72 h was under 1000 nM.

`O=C(/C=C\n1ccc(-c2cc(C(F)(F)F)cc(C(F)(F)F)c2)n1)N1CC(F)(F)C1` [Compound 35, (Z)-3-(3-(3,5-bis(trifluoromethyl)phenyl)-1H-pyrazol-1-yl)-1-(3,3-difluoroazetidin-1-yl)prop-2-en-1-one] gave an EC50 at 72 h of under 1000 nM.

Compound `[2H]/C(=C/n1nc(-c2cc(C(F)(F)F)cc(C(F)(F)F)c2)nc1[2H])C(=O)N1CC(F)(F)C1` [Compound 40, D2-(Z)-3-(3-(3,5-bis(trifluoromethyl)phenyl)-1H-1,2,4-triazol-1-yl)-1-(3,3-difluoroazetidin-1-yl)prop-2-en-1-one] has an EC50 at 72 h of under 1000 nM.

For `O=C(/C=C\N1CCC(c2cc(C(F)(F)F)cc(C(F)(F)F)c2)C1)N1CC(F)(F)C1` (centres unmarked) [Compound 43, (Z)-3-(3-(3,5-bis(trifluoromethyl)phenyl)pyrrolidin-1-yl)-1-(3,3-difluoroazetidin-1-yl)prop-2-en-1-one], the EC50 at 72 h was over 10000 nM.

With `O=C1CC(c2cc(C(F)(F)F)cc(C(F)(F)F)c2)CN1/C=C/C(=O)N1CC(F)(F)C1` (centres unmarked) [Compound 44, (E)-4-(3,5-bis(trifluoromethyl)phenyl)-1-(3-(3,3-difluoroazetidin-1-yl)-3-oxoprop-1-enyl)pyrrolidin-2-one] the EC50 at 72 h was over 10000 nM.

For `O=C(/C=C\n1cnc(-c2cc(C(F)(F)F)cc(C(F)(F)F)c2)n1)N1CC(O)(C(F)(F)F)C1` [Compound 51, (Z)-3-(3-(3,5-bis(trifluoromethyl)phenyl)-1H-1,2,4-triazol-1-yl)-1-(3-hydroxy-3-(trifluoromethyl)azetidin-1-yl)prop-2-en-1-one], the EC50 at 72 h was under 1000 nM.

With `O=C(/C=C\n1cnc(-c2cc(C(F)(F)F)cc(C(F)(F)F)c2)n1)N1CC2(CNC2)C1` [Compound 52, (Z)-3-(3-(3,5-bis(trifluoromethyl)phenyl)-1H-1,2,4-triazol-1-yl)-1-(2,6-diazaspiro[3.3]heptan-2-yl)prop-2-en-1-one 2,2,2-trifluoroacetate] the EC50 at 72 h was under 1000 nM.

For `O=C(/C=C\n1cnc(-c2cc(C(F)(F)F)cc(C(F)(F)F)c2)n1)N1CC(O)C1` [Compound 53, (Z)-3-(3-(3,5-bis(trifluoromethyl)phenyl)-1H-1,2,4-triazol-1-yl)-1-(3-hydroxyazetidine-1-yl)prop-2-en-1-one], the EC50 at 72 h was under 1000 nM.

Work on `N#CC1CN(C(=O)/C=C\n2cnc(-c3cc(C(F)(F)F)cc(C(F)(F)F)c3)n2)C1` [Compound 54, (Z)-1-(3-(3-(3,5-bis(trifluoromethyl)phenyl)-1H-1,2,4-triazol-1-yl)acryloyl)azetidine-3-carbonitrile] yielded an EC50 at 72 h of under 1000 nM.

For `O=C(O)C1CN(C(=O)/C=C\n2cnc(-c3cc(C(F)(F)F)cc(C(F)(F)F)c3)n2)C1` [Compound 55, (Z)-1-(3-(3-(3,5-bis(trifluoromethyl)phenyl)-1H-1,2,4-triazol-1-yl)acryloyl)azetidine-3-carboxylic acid], the EC50 at 72 h was 1000 to 10000 nM.

`NC1C2CN(C(=O)/C=C\n3cnc(-c4cc(C(F)(F)F)cc(C(F)(F)F)c4)n3)CC12` (centres unmarked) [Compound 57, (Z)-1-(6-amino-3-azabicyclo[3.1.0]hexan-3-yl)-3-(3-(3,5-bis(trifluoromethyl)phenyl)-1H-1,2,4-triazol-1-yl)prop-2-en-1-one] showed an EC50 at 72 h of under 1000 nM.

Work on `O=C(/C=C\n1cnc(-c2cc(C(F)(F)F)cc(C(F)(F)F)c2)n1)N1CCC2(CNC2)C1` [Compound 58, (Z)-3-(3-(3,5-bis(trifluoromethyl)phenyl)-1H-1,2,4-triazol-1-yl)-1-(2,6-diazaspiro[3.4]octan-6-yl)prop-2-en-1-one 2,2,2-trifluoroacetate] yielded an EC50 at 72 h of under 1000 nM.

Compound `O=C(/C=C\n1cnc(-c2cc(C(F)(F)F)c(Cl)c(C(F)(F)F)c2)n1)N1CC(F)(F)C1` [Compound 59, (Z)-3-(3-(4-chloro-3,5-bis(trifluoromethyl)phenyl)-1H-1,2,4-triazol-1-yl)-1-(3,3-difluoroazetidin-1-yl)prop-2-en-1-one] has an EC50 at 72 h of under 1000 nM.

`COC(=O)C1(F)CN(C(=O)/C=C\n2cnc(-c3cc(C(F)(F)F)cc(C(F)(F)F)c3)n2)C1` [Compound 61, (Z)-methyl 1-(3-(3-(3,5-bis(trifluoromethyl)phenyl)-1H-1,2,4-triazol-1-yl)acryloyl)-3-fluoroazetidine-3-carboxylate] showed an EC50 at 72 h of under 1000 nM.
